One may read the pIC50 as the negative decadic logarithm of the IC50, by convention in mol/L. Higher therefore signals a low IC50.

One experiment concerns the target T1, EfpA (Mycolicibacterium smegmatis, UniProt A0QVL8).
T1 construct: gene MSMEG_2619; native efflux pump in intact M. smegmatis cells; ethidium bromide efflux read-out
Briefly: ethidium bromide efflux (fluorescence) in M. smegmatis cells. It is filed as cell-based.

For a further experiment, the target named is T2, Mtb DNA gyrase (Mycobacterium tuberculosis, UniProt P9WG45+P9WG47).
T2 construct: gene gyrA; in vitro DNA gyrase; source details in supplement
Briefly: DNA supercoiling/decatenation inhibition, agarose gel. In kind it is biochemical.

For a further experiment, the target named is Mtb's efpA homolog (Mycobacterium tuberculosis, UniProt P9WJY5). The following applies: high-affinity interaction lost on efpA deletion.

pIC50: −log10 of the molar value.

Mtb's efpA homolog, sequence (P9WJY5 whole entry): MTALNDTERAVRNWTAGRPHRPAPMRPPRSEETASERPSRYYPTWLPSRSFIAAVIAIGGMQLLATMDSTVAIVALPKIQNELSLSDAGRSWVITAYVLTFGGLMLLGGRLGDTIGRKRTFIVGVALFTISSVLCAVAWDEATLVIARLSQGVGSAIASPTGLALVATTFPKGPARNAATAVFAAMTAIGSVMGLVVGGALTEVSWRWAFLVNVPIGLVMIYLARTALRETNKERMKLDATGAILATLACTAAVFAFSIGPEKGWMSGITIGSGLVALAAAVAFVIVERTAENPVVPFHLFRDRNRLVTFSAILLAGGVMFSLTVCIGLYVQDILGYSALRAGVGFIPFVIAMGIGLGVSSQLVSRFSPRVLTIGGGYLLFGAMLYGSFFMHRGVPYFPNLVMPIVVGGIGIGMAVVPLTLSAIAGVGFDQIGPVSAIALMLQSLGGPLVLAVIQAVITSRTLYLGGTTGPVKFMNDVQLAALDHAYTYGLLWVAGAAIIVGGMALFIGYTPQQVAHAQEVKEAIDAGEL
T2 sequence (P9WG45 whole entry): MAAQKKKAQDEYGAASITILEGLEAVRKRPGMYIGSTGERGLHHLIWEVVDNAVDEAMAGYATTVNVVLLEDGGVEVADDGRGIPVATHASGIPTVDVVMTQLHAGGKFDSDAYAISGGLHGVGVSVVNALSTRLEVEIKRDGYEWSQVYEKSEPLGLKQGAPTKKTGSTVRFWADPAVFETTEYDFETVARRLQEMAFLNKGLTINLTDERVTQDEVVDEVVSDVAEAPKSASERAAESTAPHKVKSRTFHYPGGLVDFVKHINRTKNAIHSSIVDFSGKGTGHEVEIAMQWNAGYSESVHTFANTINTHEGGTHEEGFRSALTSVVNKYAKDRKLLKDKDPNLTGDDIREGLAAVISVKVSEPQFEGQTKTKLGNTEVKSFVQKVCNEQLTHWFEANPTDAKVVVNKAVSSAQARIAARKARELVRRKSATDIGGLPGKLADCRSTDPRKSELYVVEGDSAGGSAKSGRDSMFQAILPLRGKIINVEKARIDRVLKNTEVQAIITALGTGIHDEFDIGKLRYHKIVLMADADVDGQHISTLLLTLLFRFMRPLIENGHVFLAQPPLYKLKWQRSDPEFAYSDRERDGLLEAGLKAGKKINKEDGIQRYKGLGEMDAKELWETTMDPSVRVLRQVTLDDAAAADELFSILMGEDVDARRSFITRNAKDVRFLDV
T2 sequence (P9WG47 2-838): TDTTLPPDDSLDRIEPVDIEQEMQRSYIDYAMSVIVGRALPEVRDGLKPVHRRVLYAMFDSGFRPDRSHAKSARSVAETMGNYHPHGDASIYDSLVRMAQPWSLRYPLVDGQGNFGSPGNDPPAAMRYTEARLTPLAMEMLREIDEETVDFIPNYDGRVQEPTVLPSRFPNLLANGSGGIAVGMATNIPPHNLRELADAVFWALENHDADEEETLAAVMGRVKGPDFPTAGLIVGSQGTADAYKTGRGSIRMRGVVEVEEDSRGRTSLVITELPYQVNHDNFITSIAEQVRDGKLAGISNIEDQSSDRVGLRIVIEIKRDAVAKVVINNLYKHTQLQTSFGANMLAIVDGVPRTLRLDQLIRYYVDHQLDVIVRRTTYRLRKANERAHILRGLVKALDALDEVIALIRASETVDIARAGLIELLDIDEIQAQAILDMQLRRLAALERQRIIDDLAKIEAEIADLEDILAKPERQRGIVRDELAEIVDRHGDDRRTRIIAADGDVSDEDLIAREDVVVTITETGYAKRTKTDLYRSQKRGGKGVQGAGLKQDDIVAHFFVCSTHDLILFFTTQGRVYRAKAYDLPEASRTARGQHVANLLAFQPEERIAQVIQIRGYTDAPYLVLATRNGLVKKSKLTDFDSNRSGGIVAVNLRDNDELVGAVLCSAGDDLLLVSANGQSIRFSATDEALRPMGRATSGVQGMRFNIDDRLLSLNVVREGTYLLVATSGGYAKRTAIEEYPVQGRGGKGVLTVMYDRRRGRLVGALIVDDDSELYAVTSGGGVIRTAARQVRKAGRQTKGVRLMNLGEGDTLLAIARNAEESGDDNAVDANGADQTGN

In the case of `CC(C)=CC1C(C(=O)Nc2ccc(Br)cn2)C1(C)C` (mixture of isomers) [BRD-8000], the pIC50 against EfpA is 4.42.

As for `CC(C)=C[C@@H]1[C@@H](C(=O)Nc2cccc(Br)n2)C1(C)C` [(R,R)-trans isomer of BRD-8000.2], the pIC50 on EfpA is 3.30. This pIC50 lies 1.12 log units lower than the previous one.

Consider `O=C1c2ccccc2-n2c1nc1ccccc1c2=O` [tryptanthrin], for which the “DNA supercoiling/decatenation inhibition, agarose gel” value at Mtb DNA gyrase is listed as “we validated it to be a DNA gyrase inhibitor”.

Regarding `CC(C)=C[C@H]1[C@H](C(=O)Nc2cccc(Br)n2)C1(C)C` [BRD-8000.2], the “interaction with M. smegmatis efpA deletion strain complemented with Mtb efpA” value on Mtb's efpA homolog is given as “This highaffinity interaction is restored by episomal complementation of Mtb’s efpA homolog”. In addition, the pIC50 against EfpA is 4.82.

(Values after article doi:10.1101/396440v2, “Large-scale chemical-genetics yields new Mycobacterium tuberculosis inhibitor classes” (biorxiv, 2019).)
